Measured values from PMC12693419, “Design, Synthesis, Biological Evaluation, and In Silico Studies of Novel Multitarget Cinnamic Acid Hybrids” (Molecules, 2025).

Experiments:
bovine serum albumin = target: T1, bovine serum albumin (Bos taurus, UniProt P02769); test: In vitro inhibition of albumin denaturation; conditions: heat denaturation, 60 °C 10 min
T1 construct: bovine serum albumin solution (fraction V); purchased Merck and Sigma-Aldrich; host or cells: bovine serum (fraction V)
Description: The ability of a compound to inhibit the thermal denaturation of albumin is considered an indicator of anti-inflammatory activity. Heat exposure simulates conditions of cellular stress or inflammation, during which protein and tissue damage occur. Certain substances can protect proteins from denaturation upon heating by stabilizing their structure and preventing aggregation and precipitation.
Inhibition of albumin denaturation was measured following the reported method. In a test tube, 1 mL of bovine serum albumin solution (fraction V, 1% w/v in phosphate buffer, pH 7.4) and 100 μL of the test compound solution were added sequentially. The mixture was incubated at 37 °C for 15 min, followed by heating at 60 °C for 10 min. After cooling to room temperature, the absorbance was measured at 660 nm. DMSO was used as the blank, and the results were compared to acetylsalicylic acid, which served as the reference compound (Table 6).

[1] = In vitro inhibition of linoleic acid lipid peroxidation (AAPH); conditions: 100 μM; anti-lipid peroxidation
Source text: In the present study, the aim was to evaluate the anti-lipid peroxidation activities of the synthesized compounds 5a–i, 6a–i, 9a–i, and 11 and compare their efficacy to that of Trolox, a well-known antioxidant. Using the water-soluble compound 2,2′-azobis(2-amidinopropane) hydrochloride (AAPH), peroxyl radicals are generated through spontaneous thermal decomposition in vitro. This experimental setup imitated the lipid peroxidation processes occurring in cells due to radical activity allowing the investigation of the effectiveness of the tested compounds under conditions resembling cellular oxidative stress.
An in vitro assay was performed following previously established protocols. The compound 2,2′-Azobis(2-methylpropionamidine) dihydrochloride (AAPH) was used as a controlled source of thermally generated alkylperoxy free radicals. The formation of conjugated diene hydroperoxides through the oxidation of sodium linoleate in an aqueous dispersion at 37 °C was measured by monitoring absorbance at 234 nm. The results were compared with the reference compound, Trolox (93%) (Table 6).

[2] = target: T2, soybean lipoxygenase isoenzyme-1 (SLOX-1) (Glycine max, UniProt P08170); test: In vitro inhibition of soybean lipoxygenase; type: biochemical; conditions: for LOX Inh. IC50: pH 9.0; for IC50: pH 9.0, read-out: LOX Inh. IC50
T2 construct: purchased Merck and Sigma-Aldrich
T2 sequence (P08170 1-839): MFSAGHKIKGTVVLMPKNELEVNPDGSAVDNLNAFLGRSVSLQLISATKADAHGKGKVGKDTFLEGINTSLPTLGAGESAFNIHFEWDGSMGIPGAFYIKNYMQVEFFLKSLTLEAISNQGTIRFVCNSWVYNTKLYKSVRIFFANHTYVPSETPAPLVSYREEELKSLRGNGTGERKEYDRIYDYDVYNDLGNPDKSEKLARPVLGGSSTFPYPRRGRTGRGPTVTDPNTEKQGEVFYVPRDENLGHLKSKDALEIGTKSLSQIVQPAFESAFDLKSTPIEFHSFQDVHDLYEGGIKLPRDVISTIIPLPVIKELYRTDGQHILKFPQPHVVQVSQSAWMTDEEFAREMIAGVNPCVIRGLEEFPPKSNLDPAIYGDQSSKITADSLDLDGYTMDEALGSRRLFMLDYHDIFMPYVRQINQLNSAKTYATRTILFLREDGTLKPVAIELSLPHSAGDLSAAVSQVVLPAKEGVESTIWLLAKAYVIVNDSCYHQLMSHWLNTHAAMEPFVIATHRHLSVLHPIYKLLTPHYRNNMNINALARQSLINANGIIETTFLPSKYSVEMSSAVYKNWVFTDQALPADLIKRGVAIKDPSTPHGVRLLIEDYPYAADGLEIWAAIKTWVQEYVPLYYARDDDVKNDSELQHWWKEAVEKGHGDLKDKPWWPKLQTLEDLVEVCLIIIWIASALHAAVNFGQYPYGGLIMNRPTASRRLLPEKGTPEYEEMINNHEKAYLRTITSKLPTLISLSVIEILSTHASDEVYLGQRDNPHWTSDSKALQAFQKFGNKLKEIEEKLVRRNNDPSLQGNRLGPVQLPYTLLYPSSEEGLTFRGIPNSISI
Description: In vitro anti-LOX activities were evaluated using soybean lipoxygenase isoenzyme-1 (SLOX-1), a commonly used model for mammalian LOXs.
An in vitro study was conducted following a previously reported method. The tested compounds were dissolved in DMSO (100 µM) and incubated at room temperature with 0.1 mL of sodium linoleate as the substrate and 0.2 mL of soybean lipoxygenase solution in Tris-HCl buffer (pH 9.0).

[3] = In vitro determination of NO release with Griess reagent; conditions: 100 μM, L-cysteine, pH 7.4, 37 °C, 60 min
Source text: This assay evaluates the ability of nitrate esters to release nitric oxide (NO). First, sodium nitroprusside (SNP) reacts with the thiol compound, cysteine, which serves as a reducing agent (Scheme 5). The thiol donates electrons, facilitating the breakdown of the nitroprusside complex. Afterwards, the reaction leads to the formation of intermediate complexes, such as nitrosothiol species and the decomposition of these intermediates results in the release of nitric oxide (NO). According to the literature, measurements are conducted both in the presence and absence of the thiol agent, cysteine. No significant difference was observed between the two experimental conditions, and the results were reproducible. Sodium nitroprusside (SNP) was used as the reference compound [65].
The compounds (from a 10 mM stock solution in DMSO, final concentration 100 μM) are added (20 μL) to each test tube. Then, 2 mL of phosphate buffer solution (pH 7.4) is added. L-cysteine, used as the thiol agent, is added to the mixture at a final concentration of 0.5 mM. The solution is incubated at 37 °C for 60 min, after which 1 mL is removed and mixed with 250 μL of Griess reagent (4 g sulfanilamide, 0.2 g N-(1-naphthyl)-ethylenediamine dihydrochloride, and 10 mL of H3PO4 solution, final volume adjusted to 100 mL). The mixture is allowed to stand for 10 min at room temperature, and the absorbance of the produced compound is measured at 540 nm. Sodium nitroprusside (SNP) is used as the reference compound. The results are presented as the release of NO2^− (% NO2^− (mol/mol)) induced by the compounds in the presence of L-cysteine (Table 6).

ovine COX-2 = target: T3, ovine COX-2 (Ovis aries, UniProt P79208); test: In vitro inhibition of ovine cyclooxygenase-2
T3 sequence (P79208 17-603): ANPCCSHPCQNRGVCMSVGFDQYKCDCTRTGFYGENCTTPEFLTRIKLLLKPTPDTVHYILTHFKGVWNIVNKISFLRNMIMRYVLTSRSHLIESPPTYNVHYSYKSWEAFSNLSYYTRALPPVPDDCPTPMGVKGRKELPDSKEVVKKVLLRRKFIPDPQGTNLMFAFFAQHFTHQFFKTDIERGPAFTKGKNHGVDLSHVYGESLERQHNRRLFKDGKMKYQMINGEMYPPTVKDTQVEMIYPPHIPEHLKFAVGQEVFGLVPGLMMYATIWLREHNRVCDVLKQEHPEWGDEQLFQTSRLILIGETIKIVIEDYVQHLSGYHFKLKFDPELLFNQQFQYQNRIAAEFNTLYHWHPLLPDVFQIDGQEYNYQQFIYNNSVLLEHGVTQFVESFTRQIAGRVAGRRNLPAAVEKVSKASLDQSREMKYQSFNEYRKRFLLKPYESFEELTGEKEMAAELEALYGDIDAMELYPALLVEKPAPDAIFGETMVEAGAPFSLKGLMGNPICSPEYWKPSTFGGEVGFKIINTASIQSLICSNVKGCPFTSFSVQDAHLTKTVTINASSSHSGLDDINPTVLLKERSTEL
Description: In order to prevent this in the in vitro experiment used for testing COX inhibition activity of the new molecules, a co-substrate like N,N,N′,N′-tetramethyl-p-phenylenediamine (TMPD) is included, as it undergoes co-oxidation by PGG2. The oxidized TMPD has a maximum absorbance at 590 nm. […] To ensure maximum enzyme activity, heme is added to the reaction mixture during the in vitro assay for ovine COX-2 inhibition and COX-1 inhibition [63].
The in vitro COX-2 inhibitory activity was assessed using arachidonic acid (AA) as a substrate and N,N,N′,N′-tetramethyl-p-phenylenediamine (TMPD) as a co-substrate in a Tris-HCl buffer (pH 8.5), following the reported method [89]. To the test tube, 10 µL of the compound dissolved in DMSO was added to a mixture containing 730 µL of Tris-HCl buffer (pH 8.5), 50 µL of heme, 10 µL of COX-2 enzyme, and 100 µL of TMPD. The absorbance was measured at 590 nm. […] A blank determination was conducted as a negative control.

T1 sequence (P02769 25-607): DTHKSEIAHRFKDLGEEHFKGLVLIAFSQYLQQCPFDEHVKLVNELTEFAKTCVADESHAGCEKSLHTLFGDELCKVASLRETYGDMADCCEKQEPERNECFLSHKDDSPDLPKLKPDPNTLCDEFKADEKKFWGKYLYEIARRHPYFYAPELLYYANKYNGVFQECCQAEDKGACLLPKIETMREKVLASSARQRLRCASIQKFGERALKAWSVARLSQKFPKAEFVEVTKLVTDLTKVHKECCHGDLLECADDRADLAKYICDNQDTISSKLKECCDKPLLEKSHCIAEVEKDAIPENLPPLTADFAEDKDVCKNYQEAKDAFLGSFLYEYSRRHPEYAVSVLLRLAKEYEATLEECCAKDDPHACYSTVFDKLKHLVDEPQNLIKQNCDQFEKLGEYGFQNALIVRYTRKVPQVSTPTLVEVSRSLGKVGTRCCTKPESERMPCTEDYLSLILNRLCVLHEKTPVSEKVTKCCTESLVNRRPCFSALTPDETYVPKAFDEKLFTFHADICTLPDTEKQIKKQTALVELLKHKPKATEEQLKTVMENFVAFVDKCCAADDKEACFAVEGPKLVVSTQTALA

Row | SMILES | Albumin (inhibition of albumin denaturation) (bovine serum albumin) | AAPH Inh. at 100 μΜ [1] | LOX Inh. IC50 [2] | IC50 [2] | %NO2^− Release mol/mol at 100 μΜ [3] | IC50 (ovine COX-2) | COX-2 Inh. IC50 (ovine COX-2)
1 | CC(=O)Oc1ccccc1C(=O)O [Acetylsalicylic acid, acetylsalicylic acid, reference compound] | 31% | – | – | – | – | – | –
2 | O=C(O)/C=C/c1ccccc1 [Cinnamic acid] | – | 78% | – | – | – | – | –
3 | CC(=O)c1ccc(NC(=O)COC(=O)C=Cc2ccccc2)cc1 [Compound 5a, 2-((4-Acetylphenyl)amino)-2-oxoethyl Cinnamate] | – | 31.9% | no | – | – | – | –
4 | CC(=O)c1ccc(NC(=O)COC(=O)/C=C/c2cccc3ccccc23)cc1 [Compound 5b, 2-((4-Acetylphenyl)amino)-2-oxoethyl (E)-3-(naphthalen-1-yl)acrylate] | – | inactive and no | – | 57.5 µM | – | – | –
5 | CC(=O)c1ccc(NC(=O)COC(=O)/C=C/c2cccs2)cc1 [Compound 5c, 2-((4-Acetylphenyl)amino)-2-oxoethyl (E)-3-(thiophen-2-yl)acrylate] | – | 29% | no | – | – | – | –
6 | CC(=O)c1ccc(NC(=O)COC(=O)/C=C/c2ccco2)cc1 [Compound 5d, 2-((4-Acetylphenyl)amino)-2-oxoethyl (E)-3-(furan-2-yl)acrylate] | – | no | no | – | – | – | –
7 | CC(=O)c1ccc(NC(=O)COC(=O)/C=C/c2cc3ccccc3s2)cc1 [Compound 5e, 2-((4-Acetylphenyl)amino)-2-oxoethyl (E)-3-(benzo[b]thiophen-2-yl)acrylate] | – | no | no | – | – | – | –
8 | CC(=O)c1ccc(NC(=O)COC(=O)/C=C/c2cc3ccccc3o2)cc1 [Compound 5f, 2-((4-Acetylphenyl)amino)-2-oxoethyl (E)-3-(benzofuran-2-yl)acrylate] | – | 39% | – | 80 µM | – | – | –
9 | CC(=O)c1ccc(NC(=O)COC(=O)/C(=C/c2ccccc2)c2ccccc2)cc1 [Compound 5g, 2-((4-Acetylphenyl)amino)-2-oxoethyl (E)-2,3-diphenylacrylate] | – | 94.7% | no | – | – | – | –
10 | CC(=O)c1ccc(NC(=O)COC(=O)/C(=C/c2cccc3ccccc23)c2ccccc2)cc1 [Compound 5h, 2-((4-Acetylphenyl)amino)-2-oxoethyl (E)-3-(naphthalen-1-yl)-2-phenylacrylate] | – | 75.8% | – | 33 µM | – | – | –
11 | CC(=O)c1ccc(NC(=O)COC(=O)/C(=C/c2cccs2)c2ccccc2)cc1 [Compound 5i, 2-((4-Acetylphenyl)amino)-2-oxoethyl (E)-2-phenyl-3-(thiophen-2-yl)acrylate] | – | 77% | no | – | – | – | –
12 | C/C(=N\O)c1ccc(NC(=O)COC(=O)C=Cc2ccccc2)cc1 [Compound 6a, 2-((4-((E)-1-(Hydroxyimino)ethyl)phenyl)amino)-2-oxoethyl cinnamate] | no | 50.2% | – | 50 µM | no activity and no | 100 µM | –
13 | C/C(=N\O)c1ccc(NC(=O)COC(=O)/C=C/c2cccc3ccccc23)cc1 [Compound 6b, 2-((4-((E)-1-(Hydroxyimino)ethyl)phenyl)amino)-2-oxoethyl (E)-3-(naphthalen-1-yl)acrylate] | no | 94% | – | 60 µM | 1.1% | – | no
14 | C/C(=N\O)c1ccc(NC(=O)COC(=O)/C=C/c2ccco2)cc1 [Compound 6d, 2-((4-((E)-1-(Hydroxyimino)ethyl)phenyl)amino)-2-oxoethyl (E)-3-(furan-2-yl)acrylate] | 10% | 54% | no | – | 0.2% | – | no
15 | C/C(=N\O)c1ccc(NC(=O)COC(=O)/C=C/c2cc3ccccc3s2)cc1 [Compound 6e, 2-((4-((E)-1-(Hydroxyimino)ethyl)phenyl)amino)-2-oxoethyl (E)-3-(benzo[b]thiophen-2-yl)acrylate] | 63% | no | no | – | 1.1% | – | no
16 | C/C(=N\O)c1ccc(NC(=O)COC(=O)/C(=C/c2ccccc2)c2ccccc2)cc1 [Compound 6g, 2-((4-((E)-1-(Hydroxyimino)ethyl)phenyl)amino)-2-oxoethyl (E)-2,3-diphenylacrylate] | no | 89% | – | 44 µM | no activity and no | – | –
17 | C/C(=N\O)c1ccc(NC(=O)COC(=O)/C(=C/c2cccc3ccccc23)c2ccccc2)cc1 [Compound 6h, 2-((4-((E)-1-(Hydroxyimino)ethyl)phenyl)amino)-2-oxoethyl (E)-3-(naphthalen-1-yl)-2-phenylacrylate] | no | 97.7% | – | 62.5 µM | no activity and no | – | –
18 | Cc1c(C)c2c(c(C)c1O)CCC(C)(C(=O)O)O2 (stereo not shown) [Trolox, reference compound] | – | 93% | – | – | – | – | –
